Where “and” joins values, the source holds several entries; their conditions need not be identical. Equal entries are not always repeated. Toxic doses and inconclusive results are not listed. Rule as the data show it: active = T/C of 150% or more; inactive = T/C below 125%.
System: L1210 leukemia ip in BDF1 mice, survival T/C
Test: NCI In Vivo Anticancer Drug Screen. Data for tumor model L1210 Leukemia (intraperitoneal) in B6D2F1 (BDF1) mice
Details: endpoint: mean survival time, higher = longer survival
In short: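 Tumor cells were implanted, animals were treated, and survival was followed. The result divides the treated measurement by the vehicle-control measurement.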

[1] = dose: 100.0 mg/kg/injection, schedule: Q01DX001 (ip), vehicle: saline
[2] = dose: 200.0 mg/kg/injection, schedule: Q01DX001 (ip), vehicle: saline
[3] = dose: 400.0 mg/kg/injection, schedule: Q01DX001 (ip), vehicle: saline
[4] = dose: 100.0 mg/kg/injection, schedule: Q01DX009 (ip), vehicle: Klucel (hydroxypropylcellulose) (HPC)
[5] = dose: 200.0 mg/kg/injection, schedule: Q01DX009 (ip), vehicle: Klucel (hydroxypropylcellulose) (HPC)
[6] = dose: 400.0 mg/kg/injection, schedule: Q01DX009 (ip), vehicle: Klucel (hydroxypropylcellulose) (HPC)
[7] = dose: 100.0 mg/kg/injection, schedule: Q04DX003 (ip), vehicle: Klucel (hydroxypropylcellulose) (HPC)
[8] = dose: 200.0 mg/kg/injection, schedule: Q04DX003 (ip), vehicle: saline
[9] = dose: 400.0 mg/kg/injection, schedule: Q04DX003 (ip), vehicle: saline
[10] = dose: 75.0 mg/kg/injection, schedule: Q01DX001 (ip), vehicle: saline
[11] = dose: 100.0 mg/kg/injection, schedule: Q01DX009 (ip), vehicle: saline
[12] = dose: 200.0 mg/kg/injection, schedule: Q01DX009 (ip), vehicle: saline
[13] = dose: 50.0 mg/kg/injection, schedule: Q01DX001 (ip), vehicle: carboxymethylcellulose (CMC)
[14] = dose: 100.0 mg/kg/injection, schedule: Q04DX003 (ip), vehicle: saline
[15] = dose: 200.0 mg/kg/injection, schedule: Q04DX003 (ip), vehicle: Klucel (hydroxypropylcellulose) (HPC)
[16] = dose: 400.0 mg/kg/injection, schedule: Q04DX003 (ip), vehicle: Klucel (hydroxypropylcellulose) (HPC)

Measured: T/C

COc1cc(C)c2ccccc2n1
inactive: dose: 100.0 mg/kg/injection, schedule: Q01DX001 (ip), vehicle: saline with Tween-80 100 % of control | [1] 104 % of control | dose: 200.0 mg/kg/injection, schedule: Q01DX001 (ip), vehicle: saline with Tween-80 102 % of control | [2] 103 % of control | dose: 400.0 mg/kg/injection, schedule: Q01DX001 (ip), vehicle: saline with Tween-80 94 % of control | [3] 98 % of control

NC(=O)c1ccccc1NC(=O)c1ccccc1Cl
inactive: [4] 102 % of control | [5] 100 % of control | [6] 93 % of control

CC1(C)N=C(N)N=C(N)N1c1cccc(CCCCc2ccc(Cl)cc2Cl)c1
inactive: dose: 5.0 mg/kg/injection, schedule: Q01DX001 (ip), vehicle: saline 94 % of control | dose: 6.25 mg/kg/injection, schedule: Q04DX003 (ip), vehicle: saline with Tween-80 98 % of control | dose: 10.0 mg/kg/injection, schedule: Q01DX001 (ip), vehicle: saline 100 % of control | dose: 12.5 mg/kg/injection, schedule: Q04DX003 (ip), vehicle: saline with Tween-80 93 % of control | dose: 20.0 mg/kg/injection, schedule: Q01DX001 (ip), vehicle: saline 100 % of control | dose: 25.0 mg/kg/injection, schedule: Q04DX003 (ip), vehicle: Klucel (hydroxypropylcellulose) (HPC) 101 % of control | dose: 25.0 mg/kg/injection, schedule: Q04DX003 (ip), vehicle: saline with Tween-80 98 % of control | dose: 50.0 mg/kg/injection, schedule: Q04DX003 (ip), vehicle: Klucel (hydroxypropylcellulose) (HPC) 100 % of control | [7] 93 % of control

O=C1OC(COCC#Cc2ccccc2)CN1c1ccccc1 (configuration not stated)
inactive: dose: 100.0 mg/kg/injection, schedule: Q01DX009 (ip), vehicle: saline with Tween-80 105 % of control | dose: 100.0 mg/kg/injection, schedule: Q04DX003 (ip), vehicle: saline with Tween-80 95 % of control | dose: 200.0 mg/kg/injection, schedule: Q01DX009 (ip), vehicle: saline with Tween-80 106 % of control | dose: 200.0 mg/kg/injection, schedule: Q04DX003 (ip), vehicle: saline with Tween-80 101 % of control | dose: 400.0 mg/kg/injection, schedule: Q01DX009 (ip), vehicle: saline with Tween-80 103 % of control | dose: 400.0 mg/kg/injection, schedule: Q04DX003 (ip), vehicle: saline with Tween-80 100 % of control

Nc1ccccc1SC1CC(=O)N(c2ccc(I)cc2)C1=O (configuration not stated)
inactive: dose: 25.0 mg/kg/injection, schedule: Q04DX003 (ip), vehicle: other 88 % of control | dose: 50.0 mg/kg/injection, schedule: Q04DX003 (ip), vehicle: other 91 % of control | dose: 100.0 mg/kg/injection, schedule: Q01DX009 (ip), vehicle: other 94 % of control | dose: 100.0 mg/kg/injection, schedule: Q04DX003 (ip), vehicle: other 93 % of control | dose: 200.0 mg/kg/injection, schedule: Q01DX009 (ip), vehicle: other 102 % of control | [8] 88 % of control | dose: 400.0 mg/kg/injection, schedule: Q01DX009 (ip), vehicle: other 93 % of control | [9] 86 % of control

Cc1cc(CCN)c(C)c2c1sc1ccccc12
inactive: [10] 89 % of control

CC(O)(C(=O)O)c1ccccc1O (configuration not stated)
inactive: [10] 98 % of control | dose: 150.0 mg/kg/injection, schedule: Q01DX001 (ip), vehicle: saline 96 % of control | dose: 300.0 mg/kg/injection, schedule: Q01DX001 (ip), vehicle: saline 93 % of control

COc1ccc(OC)c(NC(=O)OCC(Cl)(Cl)Cl)c1
inactive: [11] 109 % of control | [12] 104 % of control | dose: 400.0 mg/kg/injection, schedule: Q01DX009 (ip), vehicle: saline 98 % of control

CCCOC(=O)COc1ccc(Cl)cc1
inactive: [4] 97 % of control | [5] 95 % of control | [6] 104 % of control

O=C1C(CCSc2ccccc2)C(=O)N(c2ccccc2)C1c1ccccc1 (configuration not stated)
inactive: [4] 93 % of control | [5] 94 % of control | [6] 95 % of control

CC(C)(C)C1CCC2(CC1)CCN(N1CCCCCC1)CC2
inactive: [13] 101 % of control | dose: 100.0 mg/kg/injection, schedule: Q01DX001 (ip), vehicle: carboxymethylcellulose (CMC) 111 % of control | dose: 200.0 mg/kg/injection, schedule: Q01DX001 (ip), vehicle: carboxymethylcellulose (CMC) 95 % of control | dose: 400.0 mg/kg/injection, schedule: Q01DX001 (ip), vehicle: carboxymethylcellulose (CMC) 103 % of control

COc1cccc2c1C(=O)c1c(O)c3c(c(O)c1C2=O)C[C@@](O)(C(=O)CO)C[C@@H]3OC1CC(NC(=S)Nc2ccc(F)cc2)C(O)C(C)O1 (some centres not stated)
inactive: [14] 111 % of control | [8] 106 % of control | [9] 104 % of control

CCN(CC)CC(=O)NCC(CC)(CCN(C)C)c1cccc2ccccc12 (configuration not stated)
inactive: [11] 105 % of control | [14] 102 % of control | [12] 97 % of control | [8] 100 % of control

CC1(NO)CCCCC1
inactive: dose: 100.0 mg/kg/injection, schedule: Q01DX001 (ip), vehicle: Klucel (hydroxypropylcellulose) (HPC) 100 % of control | dose: 200.0 mg/kg/injection, schedule: Q01DX001 (ip), vehicle: Klucel (hydroxypropylcellulose) (HPC) 94 % of control

O=C(CN1CCCCC1Cl)c1ccccc1 (configuration not stated)
inactive: [1] 105 % of control | [14] 100 % of control

Cc1c(NC(=O)Nc2ccccc2F)c(=O)n(-c2ccccc2)n1C
inactive: [1] 101 % of control | dose: 100.0 mg/kg/injection, schedule: Q01DX009 (ip), vehicle: acetone 86 % of control | [14] 112 % of control | [2] 95 % of control and 91 % of control | [8] 91 % of control | [3] 97 % of control and 98 % of control | [9] 95 % of control

CCCCC(CC)COC(=O)CCC(CCC(=O)OCC(CC)CCCC)C(=O)OCC(CC)CCCC (configuration not stated)
inactive: dose: 100.0 mg/kg/injection, schedule: Q04DX003 (ip), vehicle: saline sonified 98 % of control | dose: 200.0 mg/kg/injection, schedule: Q04DX003 (ip), vehicle: saline sonified 104 % of control | dose: 400.0 mg/kg/injection, schedule: Q04DX003 (ip), vehicle: saline sonified 96 % of control

O=C(Nc1ccc(Br)c2c(NC(=O)c3ccccc3)ccc(Br)c12)c1ccccc1
inactive: dose: 50.0 mg/kg/injection, schedule: Q01DX001 (ip), vehicle: saline 110 % of control | [1] 101 % of control | [2] 95 % of control | [3] 98 % of control

c1ccc2c(CNC3CCCCC3)c[nH]c2c1
inactive: [13] 90 % of control | [7] 90 % of control | [15] 97 % of control | [16] 98 % of control

NCCCCC(N)C(=O)NCCCCCCNCCCCCCNC(=O)C(N)CCCCN (configuration not stated)
inactive: dose: 10.0 mg/kg/injection, schedule: Q01DX Z (ip), vehicle: saline 95 % of control | dose: 30.0 mg/kg/injection, schedule: Q01DX Z (ip), vehicle: saline 95 % of control | [1] 90 % of control | dose: 100.0 mg/kg/injection, schedule: Q01DX Z (ip), vehicle: saline 95 % of control | [2] 103 % of control

COC(=O)C1C2OC3C(OC(=O)C31)C2Br (configuration not stated)
inactive: [7] 91 % of control | [15] 96 % of control | [16] 102 % of control

CC(=O)OCC1OC(O)C(NC(=O)C(F)(F)F)C(OC(C)=O)C1OC(C)=O (configuration not stated)
inactive: dose: 12.5 mg/kg/injection, schedule: Q04DX003 (ip), vehicle: saline 109 % of control | dose: 25.0 mg/kg/injection, schedule: Q04DX003 (ip), vehicle: saline 96 % of control

Cc1c2cnccc2c(C)c2c1c1ccccc1n2CCCC#N
inactive: [7] 105 % of control | [15] 102 % of control | [16] 109 % of control

CN(Cc1ccccc1)/C(N)=N/N
inactive: dose: 37.5 mg/kg/injection, schedule: Q04DX003 (ip), vehicle: saline 94 % of control | dose: 75.0 mg/kg/injection, schedule: Q04DX003 (ip), vehicle: saline 111 % of control | dose: 150.0 mg/kg/injection, schedule: Q04DX003 (ip), vehicle: saline 97 % of control

CC(=O)CC1(O)C(=O)Nc2ccccc21 (configuration not stated)
inactive: [4] 101 % of control | [5] 95 % of control | [6] 98 % of control
